Where two headings read alike, the source gives them in different places.
Columns and labels:
[1] = system: female hooded-Lister rats; test: Object recognition test (NOR) after sub-chronic PCP; type: in vivo, rat
Method: 60 female hooded-Lister rats (Charles River, UK) were used as subjects for these studies and weighed 248 g±20 g. Rats were allowed at least a 7-day acclimatization period to the animal unit prior to commencement of experimentation. Rats were housed in groups of 5 under standard laboratory conditions under a 12 h light:dark cycle, lights on at 0700 h. All testing was carried out in the light phase. Food and water were freely provided. All experiments were conducted in accordance with the Animals Scientific Procedures Act, U.K. 1986 and were approved by the University of Bradford ethical review panel.
40 mg of test compound was dissolved in 5 ml of 40% hydroxypropyl β-cyclodextrin (HPBC) solution. The solution was sonicated until completely dissolved. 2 ml of sterile water was added and the pH measured and adjusted with NaOH solution (0.1N) to obtain pH ˜4. Finally, sterile water was added to a final volume of 10 ml. This stock solution was then diluted in 20% HPBC to obtain the final concentrations. 100 mg of PQ10 was dissolved in a 40% HPBC solution and 8 mg of tartaric acid. The solution was sonicated until completely dissolved. 5 ml of sterile water was added and the pH measured and adjusted with NaOH solution (0.1N) to obtain pH ˜4. Finally sterile water was added to a final volume of 10 ml.
Test compound was administered at doses of 0.3 and 1.0 mg/kg via the oral route 30 min prior to testing.
PQ10 was administered at a dose of 1.0 mg/kg via the oral route 30 min prior to testing.
Certain pre-clinical tests allow the observation of relatively subtle cognitive deficits in the rat that resemble cognitive symptoms in subjects with schizophrenia. The cognitive deficits observed are seen in behaviours such as episodic memory, which can be measured by recognition tasks such as the novel object recognition (NOR) paradigm. A recognition memory task allows the comparison between presented stimuli and previously stored information. Ennaceur, A Delacour, J (1988) A new one-trial test for neurobiological studies of memory in rats Behav Brain Res 31: 47-59 described the NOR test in rats which was based on the differential exploration of familiar and new objects. The NOR test is a non-rewarded, ethologically relevant paradigm based on the spontaneous exploratory behaviour of rats that measures episodic memory. Each session consists of two trials. In the first trial, the rats are exposed to two identical objects in an open field. During the second trial, rats are exposed to two dissimilar objects, one familiar object from the first trial and one new object. Object recognition in rats can be measured as the difference in time spent exploring the familiar and the new object. […] The duration of each trial is also important as a preference for the novel object only lasts during the first 1 or 2 minutes, after which time preference diminishes as both objects become familiar and are explored equally.
Rats were randomly assigned to the 8 treatment groups
Rats were allowed to habituate to the empty test box and the behavioural test room environment for 1 h on day 1. Prior to behavioural testing on day 2 rats were given a further 3 min habituation.
Following the 3 min habituation period, the rats were given two 3 min trials (T1 and T2) which were separated by a 1 min inter-trial interval in the home cage during which the objects were changed.
In this trial, the animals were allowed to explore two identical objects (A1 and A2) for 3 min.
In this trial, the animals explored a familiar object (A) from T1 and a novel object (B) for 3 min. The familiar object presented during T2 was a duplicate of the object presented in T1 in order to avoid any olfactory trails.
The object exploration was defined by animals licking, sniffing or touching the object with the forepaws whilst sniffing, but not leaning against, turning around, standing or sitting on the object. […]

[2] = system: female hooded-Lister rats; test: as above; type: in vivo, rat; conditions: PCP + 1 mg/kg p.o., Day 1, 3 min retention trial, mean
[3] = target: T1, Rat recombinant PDE10A (rPDE10A2) (Rattus norvegicus, UniProt Q9QYJ6); test: In vitro assay PDE10A (SPA, 3H-cAMP); type: biochemical
T1 construct: inferred from the Ni metal chelate purification; made in house; host or cells: Sf9 insect cells (baculovirus)
T1 sequence (Q9QYJ6 1-794): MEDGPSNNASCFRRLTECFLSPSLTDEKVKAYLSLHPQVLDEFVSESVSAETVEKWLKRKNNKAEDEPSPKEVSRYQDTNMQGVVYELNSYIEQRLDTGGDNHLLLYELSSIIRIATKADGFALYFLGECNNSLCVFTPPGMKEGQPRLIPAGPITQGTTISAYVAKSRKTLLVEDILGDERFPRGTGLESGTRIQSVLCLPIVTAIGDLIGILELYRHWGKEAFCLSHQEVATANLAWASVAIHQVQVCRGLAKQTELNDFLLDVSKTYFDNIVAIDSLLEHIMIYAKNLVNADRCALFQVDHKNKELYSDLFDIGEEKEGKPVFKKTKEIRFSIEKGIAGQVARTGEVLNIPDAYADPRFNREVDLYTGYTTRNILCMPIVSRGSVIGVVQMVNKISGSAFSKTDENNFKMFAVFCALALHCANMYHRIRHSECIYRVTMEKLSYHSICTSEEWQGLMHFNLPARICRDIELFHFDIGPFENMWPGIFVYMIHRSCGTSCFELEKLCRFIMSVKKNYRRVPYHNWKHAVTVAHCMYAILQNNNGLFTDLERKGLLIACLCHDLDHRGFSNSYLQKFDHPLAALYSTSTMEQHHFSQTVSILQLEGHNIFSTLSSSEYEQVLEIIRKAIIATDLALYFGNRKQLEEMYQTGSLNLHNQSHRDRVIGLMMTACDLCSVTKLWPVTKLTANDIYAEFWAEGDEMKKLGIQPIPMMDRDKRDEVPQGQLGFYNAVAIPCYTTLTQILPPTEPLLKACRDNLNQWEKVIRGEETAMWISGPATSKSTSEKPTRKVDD
Summary of the method: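 Rat PDE10A2 expressed in Sf9 cells and Ni-purified; incubated with 60 nM cAMP plus 0.008 μCi 3H-cAMP in 50 mM Tris pH 7.8, 8.3 mM MgCl2, 1.7 mM EGTA for 60 min at room temperature. Product quantified by scintillation proximity counting; final DMSO 1%.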

[4] = system: apomorphine-induced stereotypy in rats; test: Apomorphine-induced stereotypy in rats (APO); type: in vivo; conditions: Rattus norvegicus
Method: Apomorphine (1.0 mg/kg, i.v.)-induced stereotypy (compulsive sniffing, licking, chewing) was scored every 5 min over the first hour after injection of apomorphine, following a 1 hour interval pre-treatment with the test compound. The score system was: (3) pronounced, (2) moderate, (1) slight, and (0) absent.

PDE4D3 = PDE4D3 (Homo sapiens, UniProt Q08499); test: In vitro PDE selectivity assay (SPA), PDE4D3; type: biochemical; conditions: hPDE4D3; read-out: PDE 4D3 (expressed as pIC50) (converted)
Sequence of PDE4D3 (Q08499 1-673 isoform Q08499-2): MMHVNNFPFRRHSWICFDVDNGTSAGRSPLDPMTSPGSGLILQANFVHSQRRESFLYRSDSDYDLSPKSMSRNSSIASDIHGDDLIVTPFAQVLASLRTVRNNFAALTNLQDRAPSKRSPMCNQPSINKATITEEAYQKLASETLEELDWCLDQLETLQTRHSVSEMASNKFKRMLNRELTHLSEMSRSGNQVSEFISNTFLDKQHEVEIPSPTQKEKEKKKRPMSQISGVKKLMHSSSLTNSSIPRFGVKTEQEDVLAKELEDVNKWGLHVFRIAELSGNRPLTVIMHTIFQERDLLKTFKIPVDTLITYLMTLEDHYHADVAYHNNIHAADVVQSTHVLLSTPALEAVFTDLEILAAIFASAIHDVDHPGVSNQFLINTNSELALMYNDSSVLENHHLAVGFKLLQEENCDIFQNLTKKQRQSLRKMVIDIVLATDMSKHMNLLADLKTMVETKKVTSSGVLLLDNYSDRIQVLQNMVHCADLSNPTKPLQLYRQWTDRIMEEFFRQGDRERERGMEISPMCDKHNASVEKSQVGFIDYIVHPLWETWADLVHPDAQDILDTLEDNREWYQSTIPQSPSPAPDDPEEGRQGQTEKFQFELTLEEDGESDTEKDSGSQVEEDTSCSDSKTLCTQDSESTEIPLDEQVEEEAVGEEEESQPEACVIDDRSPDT
Summary of the method: (§1)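 Inhibition of each PDE isoform was measured by scintillation proximity assay with ³H-cyclic nucleotide substrate, using incubation buffer, substrate concentration, incubation time and stop solution adapted per isoform. Compounds were tested in dose-response against 1% DMSO controls and enzyme-free blanks. IC50 came from a least-squares fit of blank-subtracted % of control versus concentration.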

PDE5A3 = PDE5A3 (Homo sapiens, UniProt O76074); test: In vitro PDE selectivity assay (SPA), PDE5A3; type: biochemical; conditions: hPDE5A3; read-out: PDE 5A3 (expressed as pIC50) (converted)
Summary of the method: as §1

[5] = target: other members of the PDE family (Homo sapiens, UniProt O00408); test: In vitro PDE selectivity assay (SPA), other members of the PDE family (protocols in Table A); type: biochemical; conditions: hPDE2A; read-out: PDE 2A (expressed as pIC50) (converted)
Sequence of other members of the PDE family (Homo sapiens, UniProt O00408) (O00408 whole entry): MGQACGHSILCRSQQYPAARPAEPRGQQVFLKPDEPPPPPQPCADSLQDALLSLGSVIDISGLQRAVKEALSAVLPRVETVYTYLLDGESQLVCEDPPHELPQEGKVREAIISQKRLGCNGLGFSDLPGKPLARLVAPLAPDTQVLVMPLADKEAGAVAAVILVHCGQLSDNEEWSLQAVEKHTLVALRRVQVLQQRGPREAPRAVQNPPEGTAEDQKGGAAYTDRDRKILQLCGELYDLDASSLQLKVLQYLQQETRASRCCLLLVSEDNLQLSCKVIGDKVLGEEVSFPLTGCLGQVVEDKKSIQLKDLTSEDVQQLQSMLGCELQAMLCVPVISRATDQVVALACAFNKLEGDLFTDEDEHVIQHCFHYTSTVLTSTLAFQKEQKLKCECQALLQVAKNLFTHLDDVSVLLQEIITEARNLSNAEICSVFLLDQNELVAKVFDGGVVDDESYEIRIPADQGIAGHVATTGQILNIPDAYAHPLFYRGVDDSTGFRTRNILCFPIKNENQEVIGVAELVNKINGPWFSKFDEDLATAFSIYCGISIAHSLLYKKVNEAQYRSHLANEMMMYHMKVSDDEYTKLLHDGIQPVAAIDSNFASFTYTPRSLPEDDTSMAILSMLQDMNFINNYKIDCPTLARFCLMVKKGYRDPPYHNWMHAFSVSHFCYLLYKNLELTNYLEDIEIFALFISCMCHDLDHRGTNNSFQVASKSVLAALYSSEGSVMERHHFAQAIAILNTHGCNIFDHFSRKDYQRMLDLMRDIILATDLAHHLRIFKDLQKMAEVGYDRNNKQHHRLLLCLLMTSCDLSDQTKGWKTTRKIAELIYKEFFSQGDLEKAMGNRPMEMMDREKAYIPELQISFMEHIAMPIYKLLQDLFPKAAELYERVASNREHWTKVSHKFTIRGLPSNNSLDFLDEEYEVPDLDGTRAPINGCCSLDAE
Summary of the method: as §1

[6] = target: other members of the PDE family (Homo sapiens, UniProt O60658); test: as above; type: biochemical; conditions: hPDE8A1; read-out: PDE 8A1 (expressed as pIC50) (converted)
Summary of the method: as §1

[7] = target: other members of the PDE family (Homo sapiens, UniProt O76083); test: as above; type: biochemical; conditions: hPDE9A; read-out: PDE 9A (expressed as pIC50) (converted)
Sequence of other members of the PDE family (Homo sapiens, UniProt O76083) (O76083 whole entry): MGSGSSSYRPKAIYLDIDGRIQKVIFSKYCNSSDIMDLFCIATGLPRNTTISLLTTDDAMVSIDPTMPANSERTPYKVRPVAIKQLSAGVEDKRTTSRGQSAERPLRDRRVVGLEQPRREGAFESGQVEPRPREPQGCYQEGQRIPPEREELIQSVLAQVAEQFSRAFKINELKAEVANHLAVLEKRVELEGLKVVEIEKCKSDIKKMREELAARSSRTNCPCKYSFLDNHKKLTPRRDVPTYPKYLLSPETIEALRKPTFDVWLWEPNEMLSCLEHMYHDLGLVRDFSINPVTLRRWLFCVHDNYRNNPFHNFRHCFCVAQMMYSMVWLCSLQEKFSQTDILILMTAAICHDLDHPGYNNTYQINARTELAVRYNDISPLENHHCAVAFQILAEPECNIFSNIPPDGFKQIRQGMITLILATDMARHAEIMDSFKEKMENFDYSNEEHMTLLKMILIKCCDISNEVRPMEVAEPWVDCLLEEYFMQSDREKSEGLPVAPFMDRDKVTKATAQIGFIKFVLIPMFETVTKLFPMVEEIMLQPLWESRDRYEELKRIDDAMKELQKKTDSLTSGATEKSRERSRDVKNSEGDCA
Summary of the method: as §1

[8] = target: other members of the PDE family (Homo sapiens, UniProt P16499+P35913); test: as above; type: biochemical; conditions: hPDE6AB; read-out: PDE 6AB (expressed as pIC50) (converted)
Summary of the method: as §1

[9] = target: other members of the PDE family (Homo sapiens, UniProt Q13946); test: as above; type: biochemical; conditions: hPDE7A1; read-out: PDE 7A (expressed as pIC50) (converted)
Sequence of other members of the PDE family (Homo sapiens, UniProt Q13946) (Q13946 whole entry): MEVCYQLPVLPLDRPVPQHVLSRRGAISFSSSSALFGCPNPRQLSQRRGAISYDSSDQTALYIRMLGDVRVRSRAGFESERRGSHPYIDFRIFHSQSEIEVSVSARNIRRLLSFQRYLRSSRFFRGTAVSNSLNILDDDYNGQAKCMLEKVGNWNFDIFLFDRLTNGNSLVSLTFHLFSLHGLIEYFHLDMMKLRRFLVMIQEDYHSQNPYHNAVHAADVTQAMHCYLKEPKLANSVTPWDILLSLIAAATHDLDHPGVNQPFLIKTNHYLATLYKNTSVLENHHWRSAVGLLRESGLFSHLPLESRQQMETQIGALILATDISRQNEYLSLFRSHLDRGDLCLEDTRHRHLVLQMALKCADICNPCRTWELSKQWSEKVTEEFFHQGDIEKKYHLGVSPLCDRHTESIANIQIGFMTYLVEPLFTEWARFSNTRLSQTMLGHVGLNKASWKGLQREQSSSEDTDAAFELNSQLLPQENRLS
Summary of the method: as §1

[10] = target: other members of the PDE family (Homo sapiens, UniProt Q14432); test: as above; type: biochemical; conditions: hPDE3A; read-out: PDE 3A (expressed as pIC50) (converted)
Sequence of other members of the PDE family (Homo sapiens, UniProt Q14432) (Q14432 whole entry): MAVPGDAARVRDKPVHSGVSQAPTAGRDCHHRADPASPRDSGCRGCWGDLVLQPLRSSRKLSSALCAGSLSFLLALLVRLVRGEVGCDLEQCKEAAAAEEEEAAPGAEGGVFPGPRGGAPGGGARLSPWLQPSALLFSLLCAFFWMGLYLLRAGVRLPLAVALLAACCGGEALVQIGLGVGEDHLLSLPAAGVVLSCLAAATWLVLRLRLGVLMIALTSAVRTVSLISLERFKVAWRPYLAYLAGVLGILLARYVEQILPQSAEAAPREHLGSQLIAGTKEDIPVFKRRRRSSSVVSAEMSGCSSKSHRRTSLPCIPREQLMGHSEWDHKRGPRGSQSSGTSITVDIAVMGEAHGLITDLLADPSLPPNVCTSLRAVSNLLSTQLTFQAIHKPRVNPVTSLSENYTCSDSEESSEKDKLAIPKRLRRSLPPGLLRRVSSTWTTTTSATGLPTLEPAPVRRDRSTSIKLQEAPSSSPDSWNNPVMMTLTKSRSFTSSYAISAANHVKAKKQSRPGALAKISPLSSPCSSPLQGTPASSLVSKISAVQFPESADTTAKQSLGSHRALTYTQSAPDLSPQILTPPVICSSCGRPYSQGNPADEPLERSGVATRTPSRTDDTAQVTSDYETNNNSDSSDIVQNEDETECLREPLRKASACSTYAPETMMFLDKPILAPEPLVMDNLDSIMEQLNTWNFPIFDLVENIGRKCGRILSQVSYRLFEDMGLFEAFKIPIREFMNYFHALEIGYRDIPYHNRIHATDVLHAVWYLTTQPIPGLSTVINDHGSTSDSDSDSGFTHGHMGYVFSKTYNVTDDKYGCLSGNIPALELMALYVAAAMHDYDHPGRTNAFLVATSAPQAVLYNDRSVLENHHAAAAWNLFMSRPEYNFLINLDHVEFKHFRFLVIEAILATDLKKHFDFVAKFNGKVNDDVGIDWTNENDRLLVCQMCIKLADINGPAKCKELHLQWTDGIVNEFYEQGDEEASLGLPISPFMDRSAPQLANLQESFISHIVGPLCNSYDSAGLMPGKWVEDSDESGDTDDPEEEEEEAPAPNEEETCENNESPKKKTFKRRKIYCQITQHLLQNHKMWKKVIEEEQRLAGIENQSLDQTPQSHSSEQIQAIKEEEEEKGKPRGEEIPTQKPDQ
Summary of the method: as §1

[11] = target: other members of the PDE family (Homo sapiens, UniProt Q9HCR9); test: as above; type: biochemical; conditions: hPDE11A4; read-out: PDE 11A4 (expressed as pIC50) (converted)
Sequence of other members of the PDE family (Homo sapiens, UniProt Q9HCR9) (Q9HCR9 whole entry): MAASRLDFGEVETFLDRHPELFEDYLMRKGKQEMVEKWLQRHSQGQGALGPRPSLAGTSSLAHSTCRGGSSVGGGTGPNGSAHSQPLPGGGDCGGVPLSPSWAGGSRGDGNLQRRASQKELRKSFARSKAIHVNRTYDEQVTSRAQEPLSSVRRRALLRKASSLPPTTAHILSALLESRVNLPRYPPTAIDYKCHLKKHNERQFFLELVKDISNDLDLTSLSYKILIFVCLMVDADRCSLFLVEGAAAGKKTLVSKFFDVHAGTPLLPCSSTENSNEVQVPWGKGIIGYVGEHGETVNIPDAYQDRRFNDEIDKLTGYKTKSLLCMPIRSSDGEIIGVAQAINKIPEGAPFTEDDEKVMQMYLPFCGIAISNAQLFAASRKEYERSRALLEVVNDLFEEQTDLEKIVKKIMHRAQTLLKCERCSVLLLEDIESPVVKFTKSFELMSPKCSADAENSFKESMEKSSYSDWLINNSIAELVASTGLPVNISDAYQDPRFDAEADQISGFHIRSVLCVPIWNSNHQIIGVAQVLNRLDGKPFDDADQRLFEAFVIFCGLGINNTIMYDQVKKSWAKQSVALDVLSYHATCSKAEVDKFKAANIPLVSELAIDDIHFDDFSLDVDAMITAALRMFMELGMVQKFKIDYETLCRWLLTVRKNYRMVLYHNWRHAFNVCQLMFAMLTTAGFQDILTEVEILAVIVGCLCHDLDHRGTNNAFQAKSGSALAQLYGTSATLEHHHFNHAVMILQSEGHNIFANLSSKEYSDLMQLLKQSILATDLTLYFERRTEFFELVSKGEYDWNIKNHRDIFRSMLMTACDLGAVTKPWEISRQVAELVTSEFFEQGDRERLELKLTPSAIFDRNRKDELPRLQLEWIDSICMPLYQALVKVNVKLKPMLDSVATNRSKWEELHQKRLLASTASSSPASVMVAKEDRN
Summary of the method: as §1

PDE1B1 = PDE1B1 (Homo sapiens, UniProt Q01064); test: In vitro PDE selectivity assay (SPA), PDE1B1; type: biochemical; conditions: hPDE1B1; read-out: PDE 1B1 (expressed as pIC50) (converted)
[12] = pIC50 corresponds to the −log IC50 expressed in mol/L, read-out: PDE10A2 pIC50 (converted)
[13] = Table 4 in vitro selectivity, read-out: PDE 10A2 (expressed as pIC50) (converted)
[14] = dose at which 50% of the tested animals show the effect, ≧: active in 30% of the animals at the indicated dose, ≦: active in 60%

Row | SMILES | DI (discrimination index) ([1]; PCP + 1 mg/kg p.o., mean) | LMA (no. of lines crossed) ([1]; PCP + 1 mg/kg p.o., mean) | effects of acute treatment in the NOR task ([1]; acute treatment, oral route 30 min prior to testing, compound 1 0.3-1.0 mg/kg, PQ10 1.0 mg/kg, sub-chronic PCP female rats) | T2(A) exploration time of familiar object, retention trial [2] [s] | T2(B) exploration time of novel object, retention trial [2] [s] | IC50 [3, 12] [µM] | ED50 ([4]; n.d.: found not active at threshold dose 2.5 mg/kg or 10 mg/kg (a), not further tested) [mg/kg] | melting point | IC50 [3, 13] [µM] | IC50 (PDE4D3) [µM] | IC50 (PDE5A3) [µM] | IC50 [5] [µM] | IC50 [6] [µM] | IC50 [7] [µM] | IC50 [8] [µM] | IC50 [9] [µM] | IC50 [10] [µM] | IC50 [11] [µM] | ED50 [4, 14] [mg/kg] | IC50 (PDE1B1) [µM]
1 | COc1cc2ncnc(N3CC[C@@H](Oc4cnc5ccccc5n4)C3)c2cc1OC [PQ10, reference compound] | 0.4193 | 65.5 no. of lines crossed | selective for the retention phase | 7.9 | 19.9 |  |  |  |  |  |  |  |  |  |  |  |  |  |  | 
2 | Cc1nc2c(-c3ccncc3)ccnn2c1-c1ccc(N2CCOCC2)nc1 [compound 31, 2-methyl-3-[6-(4-morpholinyl)-3-pyridinyl]-8-(4-pyridinyl)-imidazo[1,2-b]pyridazine] |  |  |  |  |  | 0.0603 | > 2.5 | > 300 °C (dec.) |  |  |  |  |  |  |  |  |  |  |  | 
3 | COCCn1cc(-c2c(C)nc3c(N4CCOCC4)ccnn23)cn1 [compound 36, 3-[1-(2-methoxyethyl)-1H-pyrazol-4-yl]-2-methyl-8-(4-morpholinyl)-imidazo[1,2-b]pyridazine] |  |  |  |  |  | 0.0562 |  |  | 0.0562 | > 10 | > 10 | > 10 | > 10 | > 10 | > 10 | > 10 | > 10 | > 10 | 5 | 
4 | c1cc(-c2ccnn3c(-c4ccc(N5CCOCC5)nc4)cnc23)ccn1 [compound 61, 3-[6-(4-morpholinyl)-3-pyridinyl]-8-(4-pyridinyl)-imidazo[1,2-b]pyridazine] |  |  |  |  |  | 0.339 |  |  | 0.339 | > 10 | 2.69 | 7.94 |  | > 10 |  | > 10 | > 10 | > 10 | 1.2 | > 10
